Laboratory results taken from PubChem BioAssay AID1963828 (Molecular Pharmacology Branch, DTP, NCI, 2024).

Test system: 991263-137-R1-J2-PDC complex spheroid viability
Assay: Anticancer human tumor 991263-137-R1-J2-PDC patient-derived colon adenocarcinoma cell line growth inhibition [POLQ]
Details: for IC50: curve of first compound; for viability, T/C: stronger effect = lower value
Outline: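 Growth inhibition in 3D: complex spheroids (tumor PDC, HUVEC, MSC) treated with POLQ inhibitor combinations; where Cmax unknown, highest tested concentration 10 microM, except SN-38 at 1 microM.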

[1] = second compound 0.0316 µM, first compound 0.0316 µM
[2] = second compound 0.0316 µM, first compound 0.1 µM
[3] = second compound 0.0316 µM, first compound 0.316 µM
[4] = second compound 0.0316 µM, first compound 1 µM
[5] = second compound 0.0316 µM, first compound 3.16 µM
[6] = second compound 0.0316 µM, first compound 10 µM
[7] = second compound 0.1 µM, first compound 0.0316 µM
[8] = second compound 0.1 µM, first compound 0.1 µM
[9] = second compound 0.1 µM, first compound 0.316 µM
[10] = second compound 0.1 µM, first compound 1 µM
[11] = second compound 0.1 µM, first compound 3.16 µM
[12] = second compound 0.1 µM, first compound 10 µM
[13] = second compound 0.316 µM, first compound 0.0316 µM
[14] = second compound 0.316 µM, first compound 0.1 µM
[15] = second compound 0.316 µM, first compound 0.316 µM
[16] = second compound 0.316 µM, first compound 1 µM
[17] = second compound 0.316 µM, first compound 3.16 µM
[18] = second compound 0.316 µM, first compound 10 µM
[19] = second compound 1 µM, first compound 0.0316 µM
[20] = second compound 1 µM, first compound 0.1 µM
[21] = second compound 1 µM, first compound 0.316 µM
[22] = second compound 1 µM, first compound 1 µM
[23] = second compound 1 µM, first compound 3.16 µM
[24] = second compound 1 µM, first compound 10 µM
[25] = second compound 3.16 µM, first compound 0.0316 µM
[26] = second compound 3.16 µM, first compound 0.1 µM
[27] = second compound 3.16 µM, first compound 0.316 µM
[28] = second compound 3.16 µM, first compound 1 µM
[29] = second compound 3.16 µM, first compound 3.16 µM
[30] = second compound 3.16 µM, first compound 10 µM
[31] = second compound 10 µM, first compound 0.0316 µM
[32] = second compound 10 µM, first compound 0.1 µM
[33] = second compound 10 µM, first compound 0.316 µM
[34] = second compound 10 µM, first compound 1 µM
[35] = second compound 10 µM, first compound 3.16 µM
[36] = second compound 10 µM, first compound 10 µM
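Further: spheroids exposed to compounds for 7 days before readout.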
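Wherever viability, T/C is given: 100% = DMSO vehicle control viability.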

`CC(=O)O[C@H]1C(=O)[C@@]2(C)[C@H]([C@H](OC(=O)c3ccccc3)[C@]3(O)C[C@H](OC(=O)[C@H](O)[C@@H](NC(=O)c4ccccc4)c4ccccc4)C(C)=C1C3(C)C)[C@]1(OC(C)=O)CO[C@@H]1C[C@@H]2O` + Cc1cccc(N(C)C(=O)C2C(O)CCN2c2nc(C)cc(C(F)(F)F)c2C#N)c1 showed an IC50 (second compound 0.0316 µM) of 1.36 µM, an IC50 (second compound 0.1 µM) of 1.83 µM and an IC50 (second compound 0.316 µM) of 1.04 µM. The IC50 (second compound 1 µM) was 0.825 µM, the IC50 (second compound 3.16 µM) was 1.51 µM and the IC50 (second compound 10 µM) was 0.295 µM. It also gave a viability, T/C (second compound 0.0316 µM, first compound 0.00949 µM) of 80.4%, a viability, T/C (second compound 0.0316 µM, first compound 0.03 µM) of 85.6% and a viability, T/C (second compound 0.0316 µM, first compound 0.0949 µM) of 85.2%. The viability, T/C (second compound 0.0316 µM, first compound 0.3 µM) was 67.5%, the viability, T/C (second compound 0.0316 µM, first compound 0.949 µM) was 53.2% and the viability, T/C (second compound 0.0316 µM, first compound 3 µM) was 46.1%. For the same compound, the viability, T/C (second compound 0.1 µM, first compound 0.00949 µM) was 93.4%, the viability, T/C (second compound 0.1 µM, first compound 0.03 µM) was 92.5% and the viability, T/C (second compound 0.1 µM, first compound 0.0949 µM) was 84.2%. The viability, T/C (second compound 0.1 µM, first compound 0.3 µM) was 74%, the viability, T/C (second compound 0.1 µM, first compound 0.949 µM) was 57.9% and the viability, T/C (second compound 0.1 µM, first compound 3 µM) was 44%. The viability, T/C (second compound 0.316 µM, first compound 0.00949 µM) was 85.8%, the viability, T/C (second compound 0.316 µM, first compound 0.03 µM) was 86.3% and the viability, T/C (second compound 0.316 µM, first compound 0.0949 µM) was 83.4%. The viability, T/C (second compound 0.316 µM, first compound 0.3 µM) was 74.1%, the viability, T/C (second compound 0.316 µM, first compound 0.949 µM) was 50.1% and the viability, T/C (second compound 0.316 µM, first compound 3 µM) was 46.1%. For the same compound, the viability, T/C (second compound 1 µM, first compound 0.00949 µM) was 82.6%, the viability, T/C (second compound 1 µM, first compound 0.03 µM) was 89.2% and the viability, T/C (second compound 1 µM, first compound 0.0949 µM) was 85%. The viability, T/C (second compound 1 µM, first compound 0.3 µM) was 63.2%, the viability, T/C (second compound 1 µM, first compound 0.949 µM) was 51.3% and the viability, T/C (second compound 1 µM, first compound 3 µM) was 42.8%. It also gave a viability, T/C (second compound 3.16 µM, first compound 0.00949 µM) of 87.3%, a viability, T/C (second compound 3.16 µM, first compound 0.03 µM) of 79.5% and a viability, T/C (second compound 3.16 µM, first compound 0.0949 µM) of 80.7%. It also gave a viability, T/C (second compound 3.16 µM, first compound 0.3 µM) of 63.8%, a viability, T/C (second compound 3.16 µM, first compound 0.949 µM) of 56% and a viability, T/C (second compound 3.16 µM, first compound 3 µM) of 42.1%. For the same compound, the viability, T/C (second compound 10 µM, first compound 0.00949 µM) was 79.9%, the viability, T/C (second compound 10 µM, first compound 0.03 µM) was 88.4% and the viability, T/C (second compound 10 µM, first compound 0.0949 µM) was 69.5%. For the same compound, the viability, T/C (second compound 10 µM, first compound 0.3 µM) was 51.6%, the viability, T/C (second compound 10 µM, first compound 0.949 µM) was 50.7% and the viability, T/C (second compound 10 µM, first compound 3 µM) was 46.7%.
In the case of `O=C(Nc1ccc(O)c(NS(=O)(=O)c2ccc(F)cc2)c1)c1ccc(-c2ccccc2)cc1` + COC1C(OC(N)=O)C(O)C(Oc2ccc3c(O)c(NC(=O)c4ccc(O)c(CC=C(C)C)c4)c(=O)oc3c2C)OC1(C)C, the IC50 (second compound 0.0316 µM) is reported as > 10 µM, the IC50 (second compound 0.1 µM) is reported as > 10 µM and the IC50 (second compound 0.316 µM) is reported as > 10 µM. The IC50 (second compound 1 µM) was > 10 µM, the IC50 (second compound 3.16 µM) was > 10 µM and the IC50 (second compound 10 µM) was > 10 µM. It also gave a viability, T/C [1] of 87.8%, a viability, T/C [2] of 111% and a viability, T/C [3] of 112%. It also gave a viability, T/C [4] of 93.5%, a viability, T/C [5] of 89.3% and a viability, T/C [6] of 105%. It also gave a viability, T/C [7] of 110%, a viability, T/C [8] of 119% and a viability, T/C [9] of 113%. It also gave a viability, T/C [10] of 79.6%, a viability, T/C [11] of 110% and a viability, T/C [12] of 93.5%. It also gave a viability, T/C [13] of 93.9%, a viability, T/C [14] of 112% and a viability, T/C [15] of 92.8%. For the same compound, the viability, T/C [16] was 106%, the viability, T/C [17] was 93.1% and the viability, T/C [18] was 92.8%. For the same compound, the viability, T/C [19] was 119%, the viability, T/C [20] was 101% and the viability, T/C [21] was 100%. For the same compound, the viability, T/C [22] was 109%, the viability, T/C [23] was 109% and the viability, T/C [24] was 96.3%. The viability, T/C [25] was 101%, the viability, T/C [26] was 103% and the viability, T/C [27] was 91.2%. It also gave a viability, T/C [28] of 79.1%, a viability, T/C [29] of 111% and a viability, T/C [30] of 79.6%. The viability, T/C [31] was 96.5%, the viability, T/C [32] was 112% and the viability, T/C [33] was 103%. It also gave a viability, T/C [34] of 104%, a viability, T/C [35] of 102% and a viability, T/C [36] of 91.5%.
For `COc1cc2cc(C(=O)CCC(=O)O)sc2cc1OC` + Cc1cccc(N(C)C(=O)C2C(O)CCN2c2nc(C)cc(C(F)(F)F)c2C#N)c1, the IC50 (second compound 0.0316 µM) was > 10 µM, the IC50 (second compound 0.1 µM) was > 10 µM and the IC50 (second compound 0.316 µM) was > 10 µM. For the same compound, the IC50 (second compound 1 µM) was > 10 µM, the IC50 (second compound 3.16 µM) was > 10 µM and the IC50 (second compound 10 µM) was > 10 µM. It also gave a viability, T/C [1] of 100%, a viability, T/C [2] of 103% and a viability, T/C [3] of 99.8%. The viability, T/C [4] was 95.8%, the viability, T/C [5] was 102% and the viability, T/C [6] was 81.8%. For the same compound, the viability, T/C [7] was 91.5%, the viability, T/C [8] was 88.8% and the viability, T/C [9] was 95.4%. For the same compound, the viability, T/C [10] was 93.6%, the viability, T/C [11] was 95.7% and the viability, T/C [12] was 77%. For the same compound, the viability, T/C [13] was 102%, the viability, T/C [14] was 92.8% and the viability, T/C [15] was 101%. The viability, T/C [16] was 102%, the viability, T/C [17] was 97.4% and the viability, T/C [18] was 71.2%. It also gave a viability, T/C [19] of 91.2%, a viability, T/C [20] of 103% and a viability, T/C [21] of 91.5%. It also gave a viability, T/C [22] of 88%, a viability, T/C [23] of 108% and a viability, T/C [24] of 74.2%. For the same compound, the viability, T/C [25] was 87.8%, the viability, T/C [26] was 94.1% and the viability, T/C [27] was 90.3%. The viability, T/C [28] was 110%, the viability, T/C [29] was 87.2% and the viability, T/C [30] was 80%. It also gave a viability, T/C [31] of 86%, a viability, T/C [32] of 97.5% and a viability, T/C [33] of 97.9%. The viability, T/C [34] was 101%, the viability, T/C [35] was 102% and the viability, T/C [36] was 81%.
